The molecules below were run on Plasmodium falciparum (assay: Antimalarial activity against synchronous ring-stage Plasmodium falciparum 3D7 infected in erythrocytes incubated for 48 hrs by fluorescence based method). Conditions: 3D7, Erythrocyte.
Assay type: functional, organism-based

| SMILES | IC50 |
| --- | --- |
| C[C@H]1NC(=O)[C@@H](Cc2ccccc2)N(C)C(=O)[C@@H]2CCCN2C(=O)c2ccccc2NC(=O)[C@H](Cc2ccccc2)NC1=O | 9.4 µM |
| CN1C(=O)[C@@H]2CCCN2C(=O)c2ccccc2NC(=O)[C@H](Cc2ccccc2)NC(=O)[C@@H](CO)NC(=O)[C@H]1Cc1ccccc1 | 16 µM |
| C[C@H]1NC(=O)[C@@H](Cc2ccccc2)N(C)C(=O)[C@@H]2CCCN2C(=O)c2ccccc2NC(=O)[C@H](CCO)NC1=O | > 50 µM |
| C[C@H]1NC(=O)[C@@H](Cc2ccccc2)N(C)C(=O)[C@@H]2CCCN2C(=O)c2ccccc2NC(=O)[C@H](Cc2ccc(O)cc2)NC1=O | 10 µM |
| C[C@H]1NC(=O)[C@@H](Cc2ccccc2)N(C)C(=O)[C@@H]2CCCN2C(=O)c2ccccc2NC(=O)[C@H](Cc2ccc(O)c(Cl)c2)NC1=O | 0.19 µM |
| CN1C(=O)[C@@H]2CCCN2C(=O)c2ccccc2NC(=O)[C@H](Cc2ccccc2)NC(=O)CNC(=O)[C@H]1Cc1ccccc1 | 3 µM |
